Assay results as given in ChEMBL document CHEMBL1155491, “Acylurea connected straight chain hydroxamates as novel histone deacetylase inhibitors: Synthesis, SAR, and in vivo antitumor activity” (Bioorg Med Chem Lett, 2010).
Converted amounts (≈) assume the structure as drawn. The source made the active and inactive calls. No cut-off for these calls is given here.

Experiments:
Histone deacetylase 8 = target: T1, Histone deacetylase 8 (Homo sapiens, UniProt Q9BY41); assay: Inhibition of HDAC8
T1 sequence (Q9BY41 whole entry): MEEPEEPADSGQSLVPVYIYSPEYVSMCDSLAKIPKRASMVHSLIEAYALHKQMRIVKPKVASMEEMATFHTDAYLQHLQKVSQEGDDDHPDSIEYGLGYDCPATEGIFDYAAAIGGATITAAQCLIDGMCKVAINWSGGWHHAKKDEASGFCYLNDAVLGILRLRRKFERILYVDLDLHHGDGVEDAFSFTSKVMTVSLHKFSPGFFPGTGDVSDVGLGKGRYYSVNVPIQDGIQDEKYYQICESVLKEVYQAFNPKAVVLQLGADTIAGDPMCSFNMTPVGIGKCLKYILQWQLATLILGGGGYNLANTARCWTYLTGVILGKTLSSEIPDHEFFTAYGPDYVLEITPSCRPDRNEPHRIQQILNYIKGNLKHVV

Histone deacetylase 5 = Histone deacetylase 5 (Homo sapiens, UniProt Q9UQL6); assay: Inhibition of HDAC5
[1] = target: T2, Protein deacetylase HDAC6 (Homo sapiens, UniProt Q9UBN7); assay: Inhibition of HDAC6
T2 sequence (Q9UBN7 whole entry): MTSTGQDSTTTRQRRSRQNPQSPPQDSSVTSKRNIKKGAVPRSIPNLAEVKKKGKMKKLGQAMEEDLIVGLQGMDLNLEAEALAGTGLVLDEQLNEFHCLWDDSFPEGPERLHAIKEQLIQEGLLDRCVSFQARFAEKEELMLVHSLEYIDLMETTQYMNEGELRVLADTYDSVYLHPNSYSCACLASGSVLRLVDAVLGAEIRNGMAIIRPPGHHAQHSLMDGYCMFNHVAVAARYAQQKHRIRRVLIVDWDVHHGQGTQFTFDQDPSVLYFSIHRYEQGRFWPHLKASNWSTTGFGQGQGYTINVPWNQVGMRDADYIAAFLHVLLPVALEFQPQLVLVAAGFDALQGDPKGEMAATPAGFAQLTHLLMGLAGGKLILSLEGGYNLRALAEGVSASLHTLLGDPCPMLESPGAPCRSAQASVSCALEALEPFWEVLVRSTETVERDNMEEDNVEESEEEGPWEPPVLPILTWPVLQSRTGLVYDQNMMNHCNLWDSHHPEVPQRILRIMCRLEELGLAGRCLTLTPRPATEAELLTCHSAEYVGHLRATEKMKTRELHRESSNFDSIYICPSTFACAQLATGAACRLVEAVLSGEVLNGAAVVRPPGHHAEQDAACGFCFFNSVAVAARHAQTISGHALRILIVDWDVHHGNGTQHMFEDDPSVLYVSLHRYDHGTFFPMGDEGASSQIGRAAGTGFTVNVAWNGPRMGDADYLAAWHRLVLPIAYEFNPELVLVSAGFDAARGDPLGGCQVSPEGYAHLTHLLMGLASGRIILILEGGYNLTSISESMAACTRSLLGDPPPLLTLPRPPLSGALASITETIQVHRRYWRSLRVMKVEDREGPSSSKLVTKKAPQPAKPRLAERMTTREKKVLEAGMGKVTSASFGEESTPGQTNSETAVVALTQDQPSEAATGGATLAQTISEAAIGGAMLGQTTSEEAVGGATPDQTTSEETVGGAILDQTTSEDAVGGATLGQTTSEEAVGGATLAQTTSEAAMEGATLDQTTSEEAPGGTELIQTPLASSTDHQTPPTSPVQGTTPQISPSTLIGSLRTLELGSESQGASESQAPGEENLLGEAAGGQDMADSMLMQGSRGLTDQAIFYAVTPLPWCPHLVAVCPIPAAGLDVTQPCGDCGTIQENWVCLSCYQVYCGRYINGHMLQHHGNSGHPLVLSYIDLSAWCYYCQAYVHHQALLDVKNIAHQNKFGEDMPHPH

Histone deacetylase 9 = Histone deacetylase 9 (Homo sapiens, UniProt Q9UKV0); assay: Inhibition of HDAC9
Histone deacetylase 11 = target: T3, Histone deacetylase 11 (Homo sapiens, UniProt Q96DB2); assay: Inhibition of HDAC11
T3 sequence (Q96DB2 whole entry): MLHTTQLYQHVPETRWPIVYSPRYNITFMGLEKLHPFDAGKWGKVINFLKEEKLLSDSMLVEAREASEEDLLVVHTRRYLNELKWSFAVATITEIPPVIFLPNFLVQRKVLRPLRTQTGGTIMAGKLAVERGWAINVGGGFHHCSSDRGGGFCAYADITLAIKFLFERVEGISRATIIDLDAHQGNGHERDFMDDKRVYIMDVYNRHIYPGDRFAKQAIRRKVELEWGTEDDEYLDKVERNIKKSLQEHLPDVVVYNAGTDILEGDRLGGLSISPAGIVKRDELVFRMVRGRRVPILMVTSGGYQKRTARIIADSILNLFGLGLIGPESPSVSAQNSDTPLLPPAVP

HCT-116 = assay: Antiproliferative activity against human HCT116 cells; type: functional, cell-based
[2] = Thermodynamic solubility at pH 7.4; type: physicochemical; conditions: buffer, read-out: Therm_solubility
[3] = Half life in rat liver microsome; type: ADME; conditions: liver microsomes
[4] = Half life in mouse liver microsome; type: ADME; conditions: liver microsomes
[5] = Octanol-water distribution coefficient, log D of the compound; type: physicochemical
NCI-H522 = assay: Antiproliferative activity against human NCI-H522 cells; type: functional, cell-based
Ramos = assay: Antiproliferative activity against human Ramos cells; type: functional, cell-based
Histone deacetylase 1 [6] = target: T4, Histone deacetylase 1 (Homo sapiens, UniProt Q13547); assay: Inhibition of HDAC1 in human COLO205 cells assessed as induction of histone H3 acetylation at 10 uM by Western-immuno blotting; type: cell-based; conditions: COLO 205
[7] = Apparent permeability from apical to basolateral side of Caco-2 cells; type: ADME, cell-based; conditions: human
[8] = Clearance in mouse at 10 mg/kg, iv; type: ADME, organism-based; design: dose 10 mg/kg, route intravenous; conditions: in vivo
[9] = Volume of distribution at steady state in mouse at 10 mg/kg, iv; type: ADME, organism-based; design: dose 10 mg/kg, route intravenous; conditions: in vivo, read-out: Vdss
[10] = Elimination half life in mouse at 10 mg/kg, iv; type: ADME, organism-based; design: dose 10 mg/kg, route intravenous; conditions: in vivo, read-out: beta t1/2 (converted)
[11] = Toxicity in human PC3 cells xenografted nude mouse; type: organism-based, PC-3; conditions: in vivo
PC-3 = assay: animal or person; type: functional, Homo sapiens; conditions: Mus musculus, PC-3, ip, route intraperitoneal, read-out: TGI
Mus musculus = assay: Toxicity in human HCT116 cells xenografted BALB/c mouse at 200 mg/kg, po; type: organism-based, HCT-116; design: dose 200 mg/kg, route oral; conditions: in vivo
[12] = Cmax in mouse plasma at 50 mg/kg, po; type: ADME, organism-based; design: dose 50 mg/kg, route oral
Histone deacetylase 1 [13] = target: T4, Histone deacetylase 1

T4 sequence (Q13547 whole entry): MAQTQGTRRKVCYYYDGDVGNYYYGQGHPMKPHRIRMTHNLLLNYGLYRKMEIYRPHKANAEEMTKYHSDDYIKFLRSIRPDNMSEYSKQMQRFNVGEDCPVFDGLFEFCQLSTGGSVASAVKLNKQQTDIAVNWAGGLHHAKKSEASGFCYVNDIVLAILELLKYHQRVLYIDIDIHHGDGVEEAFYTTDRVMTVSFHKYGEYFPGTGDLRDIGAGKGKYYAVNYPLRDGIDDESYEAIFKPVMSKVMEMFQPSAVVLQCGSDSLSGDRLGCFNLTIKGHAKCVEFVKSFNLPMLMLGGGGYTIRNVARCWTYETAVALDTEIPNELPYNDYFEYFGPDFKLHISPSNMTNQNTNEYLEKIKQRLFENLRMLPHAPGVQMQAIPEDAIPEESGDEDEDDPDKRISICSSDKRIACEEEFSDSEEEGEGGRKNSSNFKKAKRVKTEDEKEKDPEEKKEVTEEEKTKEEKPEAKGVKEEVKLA
Chain of Histone deacetylase 9 (Q9UKV0 whole entry): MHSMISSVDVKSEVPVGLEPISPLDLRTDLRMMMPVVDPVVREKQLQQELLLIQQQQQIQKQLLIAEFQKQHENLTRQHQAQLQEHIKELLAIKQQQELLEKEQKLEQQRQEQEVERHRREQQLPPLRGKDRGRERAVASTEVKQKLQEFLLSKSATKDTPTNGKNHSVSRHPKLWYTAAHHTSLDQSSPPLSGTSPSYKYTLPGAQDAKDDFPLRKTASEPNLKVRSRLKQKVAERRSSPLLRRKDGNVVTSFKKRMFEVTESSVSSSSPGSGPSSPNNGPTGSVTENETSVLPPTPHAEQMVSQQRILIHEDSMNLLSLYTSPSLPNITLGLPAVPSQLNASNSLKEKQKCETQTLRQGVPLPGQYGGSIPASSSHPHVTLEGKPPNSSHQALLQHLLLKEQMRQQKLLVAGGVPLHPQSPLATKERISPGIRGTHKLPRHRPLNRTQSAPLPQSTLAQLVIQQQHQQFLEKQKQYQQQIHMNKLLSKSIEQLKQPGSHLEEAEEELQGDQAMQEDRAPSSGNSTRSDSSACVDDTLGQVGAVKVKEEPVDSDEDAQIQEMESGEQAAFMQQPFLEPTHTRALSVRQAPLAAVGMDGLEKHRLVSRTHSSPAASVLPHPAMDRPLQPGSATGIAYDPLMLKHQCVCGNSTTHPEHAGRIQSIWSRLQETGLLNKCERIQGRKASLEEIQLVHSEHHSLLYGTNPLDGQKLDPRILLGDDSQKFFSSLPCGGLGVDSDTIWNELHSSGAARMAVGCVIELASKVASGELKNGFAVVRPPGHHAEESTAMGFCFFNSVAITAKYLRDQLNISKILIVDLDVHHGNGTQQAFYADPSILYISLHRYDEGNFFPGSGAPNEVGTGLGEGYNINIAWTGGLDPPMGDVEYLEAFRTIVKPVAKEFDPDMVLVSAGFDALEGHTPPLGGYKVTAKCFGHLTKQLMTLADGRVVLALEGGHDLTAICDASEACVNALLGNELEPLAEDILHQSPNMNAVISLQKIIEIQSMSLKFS
Chain of Histone deacetylase 5 (Q9UQL6 whole entry): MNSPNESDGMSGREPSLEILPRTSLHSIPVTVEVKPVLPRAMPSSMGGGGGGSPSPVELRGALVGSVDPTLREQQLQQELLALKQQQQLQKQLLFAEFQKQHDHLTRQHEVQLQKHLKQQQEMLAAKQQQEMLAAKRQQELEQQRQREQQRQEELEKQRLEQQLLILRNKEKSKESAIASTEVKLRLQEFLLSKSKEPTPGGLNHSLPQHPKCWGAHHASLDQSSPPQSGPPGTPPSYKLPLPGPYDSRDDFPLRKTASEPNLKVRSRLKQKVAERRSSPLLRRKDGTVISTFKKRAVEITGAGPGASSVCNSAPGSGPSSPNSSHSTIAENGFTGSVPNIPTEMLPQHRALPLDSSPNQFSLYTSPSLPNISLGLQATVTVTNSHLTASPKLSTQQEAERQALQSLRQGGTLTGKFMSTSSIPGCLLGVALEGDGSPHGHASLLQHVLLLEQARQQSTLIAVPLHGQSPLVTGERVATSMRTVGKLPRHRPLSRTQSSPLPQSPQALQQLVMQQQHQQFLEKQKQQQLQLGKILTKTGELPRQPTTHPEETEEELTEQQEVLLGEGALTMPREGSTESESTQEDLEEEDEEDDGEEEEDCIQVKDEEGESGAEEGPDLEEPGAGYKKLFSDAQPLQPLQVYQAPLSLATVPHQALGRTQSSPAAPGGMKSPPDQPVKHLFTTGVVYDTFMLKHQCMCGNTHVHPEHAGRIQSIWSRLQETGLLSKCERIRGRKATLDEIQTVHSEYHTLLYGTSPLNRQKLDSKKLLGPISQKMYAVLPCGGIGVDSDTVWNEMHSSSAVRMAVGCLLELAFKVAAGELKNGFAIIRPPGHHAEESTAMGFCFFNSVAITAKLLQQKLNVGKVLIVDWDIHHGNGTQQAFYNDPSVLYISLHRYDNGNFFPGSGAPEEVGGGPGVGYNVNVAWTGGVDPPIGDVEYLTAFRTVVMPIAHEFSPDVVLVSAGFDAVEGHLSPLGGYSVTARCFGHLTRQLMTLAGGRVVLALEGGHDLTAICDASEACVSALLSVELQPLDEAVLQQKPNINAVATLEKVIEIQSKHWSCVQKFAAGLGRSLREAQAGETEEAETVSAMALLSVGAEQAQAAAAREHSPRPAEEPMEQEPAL

Structure (SMILES): O=C(CCCCCNC(=O)NC(=O)c1ccccc1)NO
- IC50 (Histone deacetylase 8): 608 nM
- Ki (Histone deacetylase 8): 252 nM
- Ki (Histone deacetylase 5): 46 nM
- Ki [1]: 7 nM
- Ki (Histone deacetylase 9): 55 nM
- Ki (Histone deacetylase 11): 39 nM
- IC50 (HCT-116): 1580 nM
- solubility thermodynamic [2]: 526 µg/mL (≈ 1790 µM)
- half-life [3]: > 1 h
- half-life [4]: > 0.5 h
- logD [5]: 0.75
- IC50 (NCI-H522): 500 nM
- IC50 (Ramos): 460 nM
- Activity (Histone deacetylase 1 [6]): Active
- Papp A→B [7]: 3.12 ×10⁻⁶ cm/s
- clearance [8]: 83.8 mL/min/kg
- Vd [9]: 2.16 L/kg
- half-life [10]: 1.54 h
- MTD [11]: 200 mg/kg
- inhibition in vivo at 160 mg/kg (PC-3): 57%
- Activity (Mus musculus): Toxic
- Cmax [12]: 22.4 µM
- IC50 (Histone deacetylase 1 [13]): 53 nM
- Ki (Histone deacetylase 1 [13]): 16 nM
